The target in the assay is T1, BRAF V600E (Homo sapiens, UniProt P15056+Q96SW2, V600E).
T1 construct: knock-in of the HiBiT tag to the endogenous BRAF V600E locus; host or cells: A375.10 (A375 clonal line, CRISPR HiBiT knock-in at the endogenous BRAF V600E locus)
Description: BRAF V600E HiBiT Degradation Assay. In kind it is cell-based. The procedure, abridged:
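Endogenous HiBiT knock-in on BRAF V600E in A375 cells (clone A375.10); 11-point half-log series, top 10 μM, 2, 6 or 24 h at 37° C. Lytic HiBiT luminescence, background-subtracted, normalized to DMSO; 4-parameter fit gives DC50, Emax (residual protein) and IP (inflection point).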
Background: HiBiT is a short tag that completes a luciferase, so light tracks the accessible tagged protein.

The mark [1] stands for this setting: A375.10 cells, BRAF V600E, 2 hours, inflection point, read-out: HiBiT-Degradation A375.10 BRAF 2 hours IP.
The mark [2] stands for this setting: A375.10 cells, BRAF V600E, 2 hours, read-out: HiBiT-Degradation A375.10 BRAF 2 hours DC50.
Where [3] appears, read: A375.10 cells, HiBiT, BRAF V600E, 24 hours, read-out: HiBiT-Degradation A375.10 BRAF 24 hours DC50.
Setting [4] is: A375.10 cells, HiBiT, BRAF V600E, 24 hours, read-out: HiBiT-Degradation A375.10 BRAF 24 hours Emax.
[5] abbreviates: A375.10 cells, HiBiT, BRAF V600E, 24 hours, read-out: HiBiT-Degradation A375.10 BRAF 24 hours IP.
Where [6] appears, read: read-out: HiBiT-Degradation A375.10 BRAF 2 hours Emax, A375.10 cells, BRAF V600E, 2 hours, residual protein remaining.
[7] abbreviates: A375.10 cells, BRAF V600E, 2 hours, residual protein remaining, read-out: HiBiT-Degradation A375.10 BRAF 2 hours Emax.
Setting [8] is: A375.10 cells, BRAF V600E, 6 hours, inflection point, read-out: HiBiT-Degradation A375.10 BRAF 6 hours IP.
Setting [9] is: A375.10 cells, BRAF V600E, 6 hours, read-out: HiBiT-Degradation A375.10 BRAF 6 hours DC50.
[10] abbreviates: A375.10 cells, BRAF V600E, 6 hours, residual protein remaining, read-out: HiBiT-Degradation A375.10 BRAF 6 hours Emax.

Each structure is given as a SMILES string. Where two headings read alike, the source gives them in different places. Where only a bound is given, the exact number is not on record here.

T1 sequence (P15056 whole entry V600E): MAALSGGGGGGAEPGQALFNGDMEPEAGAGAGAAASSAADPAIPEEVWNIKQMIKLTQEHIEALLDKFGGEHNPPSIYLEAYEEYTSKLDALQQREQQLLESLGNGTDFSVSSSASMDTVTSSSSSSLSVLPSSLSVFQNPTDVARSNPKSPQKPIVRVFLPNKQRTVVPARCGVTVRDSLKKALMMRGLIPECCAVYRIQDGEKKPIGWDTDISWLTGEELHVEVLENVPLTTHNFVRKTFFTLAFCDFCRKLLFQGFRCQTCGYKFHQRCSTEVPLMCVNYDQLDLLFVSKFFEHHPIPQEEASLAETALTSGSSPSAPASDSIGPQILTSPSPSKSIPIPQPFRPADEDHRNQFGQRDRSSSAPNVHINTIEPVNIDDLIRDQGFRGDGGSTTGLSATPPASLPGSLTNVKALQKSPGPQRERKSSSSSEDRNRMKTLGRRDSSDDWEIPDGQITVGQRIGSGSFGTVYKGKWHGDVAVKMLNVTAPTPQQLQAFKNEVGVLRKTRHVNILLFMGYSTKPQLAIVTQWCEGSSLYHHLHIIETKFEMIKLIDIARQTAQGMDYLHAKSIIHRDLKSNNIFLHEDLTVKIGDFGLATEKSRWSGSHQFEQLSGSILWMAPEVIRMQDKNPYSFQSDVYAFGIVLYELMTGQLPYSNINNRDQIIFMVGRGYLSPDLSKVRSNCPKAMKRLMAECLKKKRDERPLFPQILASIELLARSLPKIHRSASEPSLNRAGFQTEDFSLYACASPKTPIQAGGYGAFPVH
T1 sequence (Q96SW2 whole entry): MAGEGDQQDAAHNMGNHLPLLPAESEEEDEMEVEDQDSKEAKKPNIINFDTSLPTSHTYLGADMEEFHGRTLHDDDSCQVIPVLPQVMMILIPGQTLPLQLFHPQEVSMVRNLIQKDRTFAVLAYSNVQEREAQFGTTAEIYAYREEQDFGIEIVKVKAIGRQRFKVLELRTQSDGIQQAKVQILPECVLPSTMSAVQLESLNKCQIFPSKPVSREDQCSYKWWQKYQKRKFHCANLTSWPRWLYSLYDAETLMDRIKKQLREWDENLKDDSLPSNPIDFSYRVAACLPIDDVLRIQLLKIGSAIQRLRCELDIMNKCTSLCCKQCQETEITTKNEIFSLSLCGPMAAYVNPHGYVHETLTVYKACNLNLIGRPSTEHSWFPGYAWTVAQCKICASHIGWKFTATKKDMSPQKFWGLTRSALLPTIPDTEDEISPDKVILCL
T1 sequence (Q16531 whole entry partner): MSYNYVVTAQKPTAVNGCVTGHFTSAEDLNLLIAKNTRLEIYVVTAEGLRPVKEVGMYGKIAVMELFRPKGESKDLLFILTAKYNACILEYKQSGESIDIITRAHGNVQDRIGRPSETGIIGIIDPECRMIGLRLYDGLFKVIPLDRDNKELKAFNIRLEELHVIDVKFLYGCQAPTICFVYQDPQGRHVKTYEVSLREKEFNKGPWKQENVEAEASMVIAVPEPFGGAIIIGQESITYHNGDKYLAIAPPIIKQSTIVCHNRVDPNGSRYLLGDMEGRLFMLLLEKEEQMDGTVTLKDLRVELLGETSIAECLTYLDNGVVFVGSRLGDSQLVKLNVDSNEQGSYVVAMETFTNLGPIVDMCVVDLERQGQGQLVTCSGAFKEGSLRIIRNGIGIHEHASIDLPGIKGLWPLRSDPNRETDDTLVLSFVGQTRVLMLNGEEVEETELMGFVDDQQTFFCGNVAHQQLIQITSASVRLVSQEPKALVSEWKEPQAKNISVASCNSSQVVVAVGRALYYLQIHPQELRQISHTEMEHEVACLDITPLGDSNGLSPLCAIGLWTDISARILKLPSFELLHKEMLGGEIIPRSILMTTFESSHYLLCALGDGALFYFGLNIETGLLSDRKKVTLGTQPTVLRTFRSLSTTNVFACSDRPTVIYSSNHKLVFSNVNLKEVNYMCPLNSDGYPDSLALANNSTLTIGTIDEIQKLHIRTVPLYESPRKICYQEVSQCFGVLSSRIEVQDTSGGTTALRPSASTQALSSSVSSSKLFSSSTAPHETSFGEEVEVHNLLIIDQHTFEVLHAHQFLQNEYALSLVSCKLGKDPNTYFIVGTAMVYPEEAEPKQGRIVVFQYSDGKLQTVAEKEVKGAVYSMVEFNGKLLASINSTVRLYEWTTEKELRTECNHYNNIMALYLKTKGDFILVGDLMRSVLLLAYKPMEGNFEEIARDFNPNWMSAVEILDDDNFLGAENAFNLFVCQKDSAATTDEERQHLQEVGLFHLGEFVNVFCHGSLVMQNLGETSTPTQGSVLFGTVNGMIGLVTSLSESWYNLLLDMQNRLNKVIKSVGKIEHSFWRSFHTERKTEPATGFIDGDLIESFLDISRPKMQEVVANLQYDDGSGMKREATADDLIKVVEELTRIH

In the case of `CCN(C)S(=O)(=O)Nc1ccc(F)c(Oc2ccc3ncn(C4CC5(CCN(C6CC7(CCN(c8cc9c(cc8F)c(N8CCC(=O)NC8=O)nn9C)CC7)C6)CC5)C4)c(=O)c3c2)c1C#N` (stereo not drawn) [Compound 198, 6-[2-cyano-3-[[ethyl(methyl)sulfamoyl]amino]-6-fluoro-phenoxy]-3-[7-[7-[3-(2,4-dioxohexahydropyrimidin-1-yl)-5-fluoro-1-methyl-indazol-6-yl]-7-azaspiro[3.5]nonan-2-yl]-7-azaspiro[3.5]nonan-2-yl]-4-oxo-quinazoline], the DC50 reads like this: under setting [1], less than 1000 nM; under setting [2], less than 1000 nM; under setting [3], less than 1000 nM; under setting [5], less than 1000 nM. Moreover, the maximum response (Emax) (commonly the size of the effect at its maximum, as opposed to the concentration needed) under setting [4] was less than 50% and the Emax under setting [6] is less than 50%.

Take `CCN(C)S(=O)(=O)Nc1ccc(F)c(C(=O)c2ccc3ncn(C4CC5(CCN(C6CCC(c7cc8c(cc7F)c(N7CCC(=O)NC7=O)nn8C)CC6)CC5)C4)c(=O)c3c2)c1F` (single isomer, unassigned) [Compound 182, 3-[7-[4-[3-(2,4-dioxohexahydropyrimidin-1-yl)-5-fluoro-1-methyl-indazol-6-yl]cyclohexyl]-7-azaspiro[3.5]nonan-2-yl]-6-[3-[[ethyl(methyl)sulfamoyl]amino]-2,6-difluoro-benzoyl]-4-oxo-quinazoline]: the DC50 is less than 1000 nM under setting [1]; 1000 to 10000 nM under setting [2]; less than 1000 nM under setting [8]; less than 1000 nM under setting [9]; less than 1000 nM under setting [3]; less than 1000 nM under setting [5]. The maximal response (Emax) under setting [7] was in the range of 50 to 90%, the Emax under setting [10] was less than 50% and the maximal effect (Emax) under setting [4] was less than 50%.

On to `CCN(C)S(=O)(=O)Nc1ccc(F)c(Nc2ccc3ncn([C@@H]4COC5(CCN(C6CCC(c7ccc(NC8CCC(=O)NC8=O)cc7F)CC6)CC5)C4)c(=O)c3c2F)c1C#N` (single isomer, unassigned) [Compound 90], for which the DC50 is less than 1000 nM under setting [1]; less than 1000 nM under setting [2]; less than 1000 nM under setting [8]; less than 1000 nM under setting [9]; less than 1000 nM under setting [3]; less than 1000 nM under setting [5]. In addition, the maximal response (Emax) was less than 50% under setting [7], less than 50% under setting [10] and less than 50% under setting [4].

With `CCN(C)S(=O)(=O)Nc1ccc(F)c(Oc2ccc3ncc([C@@H]4COC5(CCN(C6CCC(c7cc8c(cc7F)c(N7CCC(=O)NC7=O)nn8C)CC6)CC5)C4)nc3c2)c1C#N` (single isomer, unassigned) [Compound 54], the DC50 was less than 1000 nM under setting [1]; less than 1000 nM under setting [2]; less than 1000 nM under setting [8]; less than 1000 nM under setting [9]; less than 1000 nM under setting [3]; less than 1000 nM under setting [5]. The maximal response (Emax) under setting [10] was less than 50%, the Emax under setting [4] is less than 50% and the maximum response (Emax) under setting [6] was less than 50%.

Consider `Cn1nc(N2CCC(=O)NC2=O)c2cc(F)c(C3CCC(N4CCC5(CC4)C[C@@H](n4cnc6ccc(Oc7c(F)ccc(NS(=O)(=O)N8CC[C@@H](F)C8)c7C#N)cc6c4=O)CO5)CC3)cc21` (single isomer, unassigned) [Compound 121], for which the DC50 runs as follows: under setting [1], less than 1000 nM; under setting [2], less than 1000 nM; under setting [8], less than 1000 nM; under setting [9], less than 1000 nM; under setting [3], less than 1000 nM; under setting [5], less than 1000 nM. Also, the Emax by setting is: under setting [7], less than 50%; under setting [10], less than 50%; under setting [4], less than 50%.

Take `CCN(C)S(=O)(=O)Nc1ccc(F)c(Oc2ccc3ncc([C@H]4COC5(CCN(C6CCC(c7cc8c(cc7F)c(N7CCC(=O)NC7=O)nn8C)CC6)CC5)C4)nc3c2)c1C#N` (single isomer, unassigned) [Compound 48]: the DC50 was less than 1000 nM under setting [1]; less than 1000 nM under setting [2]; less than 1000 nM under setting [8]; less than 1000 nM under setting [9]; less than 1000 nM under setting [3]; less than 1000 nM under setting [5]. For the same compound, the Emax was less than 50% under setting [10], less than 50% under setting [4] and less than 50% under setting [6].

With `CCN(C)S(=O)(=O)Nc1ccc(F)c(Oc2ccc3ncc(C4CC5(CCN(C6CCC(c7cc8c(cc7F)c(N7CCC(=O)NC7=O)nn8C)CC6)CC5)C4)nc3c2)c1C#N` (single isomer, unassigned) [Compound 180, 7-[2-cyano-3-[[ethyl(methyl)sulfamoyl]amino]-6-fluoro-phenoxy]-2-[7-[4-[3-(2,4-dioxohexahydropyrimidin-1-yl)-5-fluoro-1-methyl-indazol-6-yl]cyclohexyl]-7-azaspiro[3.5]nonan-2-yl]quinoxaline], the DC50 is, setting by setting: under setting [1], less than 1000 nM; under setting [2], less than 1000 nM; under setting [8], less than 1000 nM; under setting [9], less than 1000 nM; under setting [3], less than 1000 nM; under setting [5], less than 1000 nM. In addition, the Emax is less than 50% under setting [10], less than 50% under setting [4] and less than 50% under setting [6].

Regarding `CN(CCO)S(=O)(=O)Nc1ccc(F)c(Oc2ccc3ncn(C4CC5(CCN(C6CCC(c7cc8c(cc7F)c(N7CCC(=O)NC7=O)nn8C)CC6F)CC5)C4)c(=O)c3c2)c1C#N` (single isomer, unassigned) [Compound 145, 6-[2-cyano-6-fluoro-3-[[2-hydroxyethyl(methyl)sulfamoyl]amino]phenoxy]-3-[7-[4-[3-(2,4-dioxohexahydropyrimidin-1-yl)-5-fluoro-1-methyl-indazol-6-yl]-2-fluoro-cyclohexyl]-7-azaspiro[3.5]nonan-2-yl]-4-oxo-quinazoline], the DC50 by setting is: under setting [1], less than 1000 nM; under setting [2], less than 1000 nM; under setting [8], less than 1000 nM; under setting [9], less than 1000 nM; under setting [3], less than 1000 nM; under setting [5], less than 1000 nM. The Emax is, setting by setting: under setting [10], less than 50%; under setting [4], less than 50%; under setting [6], less than 50%.

Regarding `CO[C@H]1CCN(S(=O)(=O)Nc2ccc(F)c(Oc3ccc4ncn([C@H]5COC6(CCN(C7CC8(C7)CN(c7cc9c(cc7F)c(N7CCC(=O)NC7=O)nn9C)C8)CC6)C5)c(=O)c4c3)c2C#N)C1` [Compound 157, (3S)-N-[2-cyano-3-[3-[(3R)-8-[2-[3-(2,4-dioxohexahydropyrimidin-1-yl)-5-fluoro-1-methyl-indazol-6-yl]-2-azaspiro[3.3]heptan-6-yl]-1-oxa-8-azaspiro[4.5]decan-3-yl]-4-oxo-quinazolin-6-yl]oxy-4-fluoro-phenyl]-3-methoxy-pyrrolidine-1-sulfonamide], the DC50 reads like this: under setting [1], less than 1000 nM; under setting [2], less than 1000 nM; under setting [8], less than 1000 nM; under setting [9], less than 1000 nM; under setting [3], less than 1000 nM; under setting [5], less than 1000 nM. For the same compound, the Emax is, setting by setting: under setting [10], less than 50%; under setting [4], less than 50%; under setting [6], 50 to 90%.

For `Cn1nc(N2CCC(=O)NC2=O)c2cc(F)c(N3CC4(CC(N5CCC6(CC5)CC(n5cnc7ccc(Oc8c(F)ccc(NS(=O)(=O)C9CC9)c8C#N)cc7c5=O)C6)C4)C3)cc21` [Compound 260, N-[2-cyano-3-[3-[7-[2-[3-(2,4-dioxohexahydropyrimidin-1-yl)-5-fluoro-1-methyl-indazol-6-yl]-2-azaspiro[3.3]heptan-6-yl]-7-azaspiro[3.5]nonan-2-yl]-4-oxo-quinazolin-6-yl]oxy-4-fluoro-phenyl]cyclopropanesulfonamide], the DC50 by setting is: (read-out: HiBiT-Degradation A375.10 BRAF 2 hours DC50, A375.10 cells, BRAF V600E, 2 hours) less than 1000 nM; (read-out: HiBiT-Degradation A375.10 BRAF 2 hours IP, A375.10 cells, BRAF V600E, 2 hours, inflection point) less than 1000 nM. For the same compound, the Emax under setting [6] is less than 50%.

Take `CC(C)S(=O)(=O)Nc1ccc(F)c(Oc2ccc3ncn([C@H]4COC5(CCN(C6CCC(c7ccc(NC8CCC(=O)NC8=O)cc7F)CC6)CC5)C4)c(=O)c3c2)c1C#N` (single isomer, unassigned) [Compound 92]: the DC50 is, setting by setting: under setting [1], less than 1000 nM; under setting [2], less than 1000 nM; under setting [8], less than 1000 nM; under setting [9], less than 1000 nM; under setting [3], less than 1000 nM; under setting [5], less than 1000 nM. Further, the Emax by setting is: under setting [7], less than 50%; under setting [10], less than 50%; under setting [4], less than 50%.
